This note sets out measurements from patent publication US10781420B2, “Method for producing cerebellar progenitor tissue” (RIKEN, priority 2014, dated 2020).

Common to all, as to format: cell-based
Experiment [1] has as its system Human pluripotent stem cell aggregates. The experiment in a line: Formation of rhombic lip and 3 layer structure of cerebellar plate by addition of SDF1. Here is the method:
Human pluripotent stem cell aggregates were cultured according to the method of Example 6. On and after day 21, the cells were cultured in a neural culture medium (Neurobasal/GlutaMaxI/N2). On day 28, the total amount of the medium was exchanged with the same medium, and SDF1 was added at a final concentration of 300 ng/ml. On day 35, differentiation of the tissue was analyzed by the immunofluorescence method.

A further experiment relates to Human ES cells (KhES-1). The experiment in a line: Differentiation of human ES cell aggregates (SFEBq method) into midbrain-hindbrain boundary neural progenitors. As to the method:
Human ES cells (KhES-1) subjected to maintenance culturing on MEF by a conventional method were used. To differentiate human ES cells by the serum-free floating culture of embryoid body-like aggregates with quick reaggregation (SFEBq method), human ES cells were enzymatically dispersed to single cells, according to the method of Nakano et al. (Cell Stem Cell, 10(6), 771-785, 2012), and reaggregated using a low-cell-adhesive V-bottom 96 well plate (SUMITOMO BAKELITE). 6,000 cells were seeded per well, and cultured in, as a differentiation medium, CDM medium [chemical synthesis medium without a growth factor (growth-factor-free Chemically Defined Medium; gfCDM; Wataya et al., Proc. Natl. Acad. Sci. USA, 105, 11796-11801, 2008) supplemented with insulin (7 μg/ml) and apo-transferrin (15 μg/ml)] under 5% CO2 at 37° C.
The seeding day is taken as day 0 of differentiation culturing. […] […] On day 7, ⅓ of the medium was exchanged with a differentiation medium free of Y-27632, SB431542 and Fgf2. On day 14 of culturing, the medium was completely substituted by a differentiation medium free of Y-27632, SB431542 and FGF2. The cell aggregates were fixed and sliced, and tissue differentiation was analyzed by the immunofluorescence method and quantitative PCR method.

In experiment [2] the test system is Human pluripotent stem cell aggregates. Description: Self-formation of cerebellar plate tissue (Kirrel2 positive neuroepithelium) from human pluripotent stem cell aggregates. Here is the method: The was aggregates were transferred to a low-cell-adhesion 10 cm dish on and after day 21, and cultured in a neural culture medium (Neurobasal/GlutaMaxI/N2, all Life Technologies). On day 28 of culturing, the total amount of the medium was exchanged with the same neural culture medium, and differentiation of the tissue was analyzed by the immunofluorescence method on day 35 of culturing.
Separated Kirrel2 positive cells, and cerebellar granule cell progenitors prepared from the upper rhombic lip of embryonic day 14 mouse were dispersed into single cells by cell dispersion enzyme (TrypLE, Life Technologies), and cocultured on a cover glass coated with poly D-lysine/laminin in DMEM/F12/10% FBS medium (5% CO2, 37° C.). In coculture, human pluripotent stem cell-derived Kirrel positive cells (1 vol) relative to mouse-derived cerebellar granule cell progenitors (10 vol) were mixed. After 6-12 hr, DMEM/F12/N2/BSA/Tri-iodothyronine (T3) was added to decrease the FBS concentration to about 0.8%.

Experiment [3] has the same test system. Description: Formation of cerebellar plate tissue having dorsal-ventral axis pattern by addition of FGF19. Here is the method: Human pluripotent stem cell aggregates were cultured according to the methods of Examples 1 and 2. […] The cells were cultured in a neural culture medium (Neurobasal/GlutaMaxI/N2) on and after day 21. On day 28, the total amount of the medium was exchanged with the same medium, and on day 35, tissue differentiation was analyzed by the immunofluorescence method.

Experiment [4] has the same test system. The experiment in a line: Formation of rhombic lip in cerebellar plate tissue by addition of GDF7. As to the method: Human pluripotent stem cell aggregates were cultured according to the method of Example 6. […] The cells were continuously cultured in a neural culture medium (Neurobasal/GlutaMaxI/N2). On day 28, the total amount of the medium was exchanged with the same medium free of GDF7, and on day 35, the cells were analyzed by the immunofluorescence method and the quantitative PCR method.

[5] abbreviates: SDF1 300 ng/ml added on day 28, analysed day 35.
Where [6] appears, read: FGF19 100 ng/ml added on day 14, analysed day 35.
Where [7] appears, read: GDF7 100 ng/ml added on day 21, day 35, quantitative PCR.
Where [8] appears, read: GDF7 added from day 14 of culturing.

Turning to laminin, the “formation of rhombic lip and 3 layer structure of cerebellar plate” value in experiment [1] (used in place of SDF1) is reported as “could not substitute SDF1”.

In the case of `C[C@@H](N)[C@H]1CC[C@H](C(=O)Nc2ccncc2)CC1` [Y-27632, (+)-(R)-trans-4-(1-aminoethyl)-N-(4-pyridyl)cyclohexanecarboxamide, reference compound], the “aggregate formation of human ES cells” value with Human ES cells (KhES-1) (when Y-27632 was not added) is “did not form an aggregate”.

With Sonic Hedgehog, the “formation of polarized cerebellar plate” value in experiment [2] (addition of Sonic Hedgehog to human pluripotent stem cell culturing system) was “conversely promotes formation of polarized cerebellar plate”.

Take `CC1=C2C[C@H]3[C@@H](CC=C4C[C@@H](O)CC[C@@]43C)[C@@H]2CC[C@]12O[C@@H]1C[C@H](C)CN[C@H]1[C@H]2C` [cyclopamine, reference compound]: in experiment [2] (Hedgehog inhibitor added), the “cerebellar plate formation from human pluripotent stem cells” value is on record as “did not significantly promote cerebellar plate formation”.

Consider “SDF1: known chemokine also called CXCL12, secreted ligand for chemokine receptor 4 (CXCR4)”, for which the “formation of rhombic lip and 3 layer structure of cerebellar plate” value in experiment [1] (SDF1 100 ng/ml) is “promoted formation of rhombic lip and formation of a 3 layer structure of cerebellar plate”; in experiment [1] (SDF1 500 ng/ml), “promoted formation of rhombic lip and formation of a 3 layer structure of cerebellar plate”; in experiment [1] (SDF1 added from day 21) it was “an effect similar to that when added from day 28 was observed”. Besides, the “configuration of the rhombic lip” value in experiment [1] (setting [5]) is recorded as “enables continuous configuration of the rhombic lip”. In experiment [1] (setting [5]), the “formation of continuous kirrel2 positive neuroepithelial structure” value was “promoted formation of a continuous kirrel2 positive neuroepithelial structure”.

With “FGF19: known cytokine, human ortholog of mouse Fgf15; second fibroblast growth factor”, in experiment [3] (FGF19 50 ng/ml), the “effect (frequency) on dorsal-ventral polarity formation relative to that at 100 ng/ml” value was “about ⅓” and the “formation of structure having polarity along the dorsal-ventral axis of neural tube” value is on record as “promoted formation of a structure having polarity along the dorsal-ventral axis of the neural tube”. Further, in experiment [3] (setting [6]), the “formation of continuous flat-oval neuroepithelial structure in the cell aggregate” value was “promoted formation of a continuous flat-oval neuroepithelial structure” and the “formation of structure having polarity along the dorsal-ventral axis of neural tube” value is given as “resulted in the formation of a structure having polarity along the dorsal-ventral axis of neural tube”. Besides, in experiment [3] (FGF19 300 ng/ml), the “effect (frequency) on dorsal-ventral polarity formation relative to that at 100 ng/ml” value is recorded as “of the same level as that at 100 ng/ml” and the “formation of the dorsal-ventral axis pattern” value is “similarly promoted formation of the dorsal-ventral axis pattern”. For the same molecule, in experiment [3] (FGF19 added on day 10 of culturing), the “formation of a dorsal-ventral axis pattern” value was “formation of a dorsal-ventral axis pattern was promoted, though the efficiency was low”.

On to `NC(=O)c1ccc(-c2nc(-c3ccc4c(c3)OCO4)c(-c3ccccn3)[nH]2)cc1` [SB431542, 4-(5-benzol[1,3]dioxol-5-yl-4-pyridin-2-yl-1H-imidazol-2-yl)-benzamide, reference compound], for which the “induction of differentiation into neural progenitors” value in the experiment on Human ES cells (KhES-1) (SB431542 3 μM) is listed as “induction of differentiation into neural progenitors was also observed”. Further, in the experiment with Human ES cells (KhES-1) (SB431542 10-30 μM), the “differentiation into neural progenitors in the midbrain-hindbrain boundary” value is given as “induced differentiation into neural progenitors in the midbrain-hindbrain boundary”.

B1: FGF8: fibroblast growth factor used instead of FGF19 (protein, UniProt P55075 23-233, looked up)
Fibroblast growth factor 8: QEGPGRGPALGRELASLFRAGREPQGVSQQHVREQSLVTDQLSRRLIRTYQLYSRTSGKHVQVLANKRINAMAEDGDPFAKLIVETDTFGSRVRVRGAETGLYICMNKKGKLIAKSNGKGKDCVFTEIVLENNYTALQNAKYEGWYMAFTRKGRPRKGSKTRQHQREVHFMKRLPRGHHTTEQSLRFEFLNYPPFTRSLRGSQRTWAPEPR
In the case of B1, the “formation of a dorsal-ventral axis pattern” value in experiment [3] (used instead of FGF19) was “promoted like FGF19, though the effect was weaker than FGF19”.

B2: BMP4: factor known to promote formation of rhombic lip in mouse (protein, UniProt P12644 293-408, looked up)
Bone morphogenetic protein 4: SPKHHSQRARKKNKNCRRHSLYVDFSDVGWNDWIVAPPGYQAFYCHGDCPFPLADHLNSTNHAIVQTLVNSVNSSIPKACCVPTELSAISMLYLDEYDKVVLKNYQEMVVEGCGCR
On to B2, for which the “formation of the rhombic lip from human pluripotent stem cell” value in experiment [4] (BMP4 used instead of GDF7) is recorded as “could not be induced”.

B3: GDF7: known cytokine promoting differentiation into cerebellar granule cell progenitors and formation of rhombic lip (protein, UniProt Q7Z4P5 322-450, looked up)
Growth/differentiation factor …: TALAGTRTAQGSGGGAGRGHGRRGRSRCSRKPLHVDFKELGWDDWIIAPLDYEAYHCEGLCDFPLRSHLEPTNHAIIQTLLNSMAPDAAPASCCVPARLSPISILYIDAANNVVYKQYEDMVVEACGCR
For B3, the “expression of Atoh1 positive cell in neural progenitor tissue” value in experiment [4] (GDF7 100 ng/ml added on day 21, analysed day 35, immunofluorescence) is reported as “promoted expression of Atoh1 positive cell”. For the same molecule, in experiment [4] (setting [7]), the “Atoh1 gene level relative to that by the addition of FGF2 (first comparison printed)” value is listed as “about 220 fold” and the “Atoh1 gene level relative to that by the addition of FGF2 (second comparison printed)” value came out at 1.5 fold. For the same molecule, in experiment [4] (setting [8]), the “growth of cell aggregate” value is given as “growth of cell aggregate was inhibited” and the “induction of Atoh1 positive cell” value was “Atoh1 positive cell was induced”. The “formation of the rhombic lip” value in experiment [4] (GDF7 not removed from the medium on and after day 28) is recorded as “adverse influence on the formation of the rhombic lip was not found”.

B4: FGF17: fibroblast growth factor used instead of FGF19 (protein, UniProt O60258 23-216, looked up)
Fibroblast growth factor 17: TQGENHPSPNFNQYVRDQGAMTDQLSRRQIREYQLYSRTSGKHVQVTGRRISATAEDGNKFAKLIVETDTFGSRVRIKGAESEKYICMNKRGKLIGKPSGKSKDCVFTEIVLENNYTAFQNARHEGWFMAFTRQGRPRQASRSRQNQREAHFIKRLYQGQLPFPNHAEKQKQFEFVGSAPTRRTKRTRRPQPLT
As for B4, the “formation of a dorsal-ventral axis pattern” value in experiment [3] (used instead of FGF19) is on record as “promoted like FGF19, though the effect was weaker than FGF19”.
